In US8614206B2 (Genentech, Inc., priority 2011, dated 2013):

What was measured:
BaF3 PIM1 cells = settings: read-out: Prolif BaF3_PIM1 (IC50), incubated overnight
Description: BaF3 parental line was obtained from the DSMZ repository. BaF3 lines transfected with PIM 1 or PIM2 were generated. Mouse IL-3 was purchased from R&D Systems. G418 was purchased from Clontech. Media for BaF3 parental line contained RPMI, 10% FBS, 2 mM L-Glutamine, 2 ng/mL mIL-3. Media for BaF3 PIM1 & 2 lines contained RPMI, 10% FBS, 2 mM L-Glutamine, 250 μg/mL.
BaF3, a murine interleukin-3 dependent pro-B cell line, parental cells, BaF3 PIM1 cells, BaF3 PIM2 cells, and MM1.S (multiple myeloma) cells were seeded at 2 k/well, 5 k/well, 5 k/well, and 10 k/well respectively, in a 384-well plate, at 45 μL/well. Test compound was added at 5 μL/well. BaF3 cells (parental and transfected) were incubated overnight, while MM1.S cells were incubated for 72 hours at 37° C., 5% CO2. CELL TITER GLO® Reagent (Promega) was added at 50 μL/well, the plates were incubated for 30 minutes, and their luminescence read on an HT Analyst. IC50/EC50 values for the test compound were calculated.

[1] = system: MM1.S (multiple myeloma) cells; experiment: In vitro cell proliferation, MM1.S multiple myeloma cells (CellTiter-Glo, ATP); type: cell-based; settings: 72 hours, read-out: Prolif MM1S ATP (EC50)
Procedure, shortened: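 BaF3 parental cells (medium with 2 ng/mL mIL-3) seeded at 2 k/well and MM1.S at 10 k/well, then exposed to test compound at 37° C, 5% CO2: BaF3 overnight, MM1.S for 72 hours. Viability read by CellTiter-Glo; IC50/EC50 values calculated.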

BaF3 parental cells = experiment: In vitro cell proliferation, BaF3 parental line + IL3 (CellTiter-Glo); type: cell-based, murine; settings: BaF3 parental cells with IL-3, incubated overnight; read-out: Prolif BaF3 + IL3 (IC50)
PIM1 = PIM1 (Homo sapiens (Human), UniProt P11309); experiment: Pim kinase inhibition, PIM1 LC3K (Example 901); type: biochemical
PIM1, sequence (P11309 whole entry): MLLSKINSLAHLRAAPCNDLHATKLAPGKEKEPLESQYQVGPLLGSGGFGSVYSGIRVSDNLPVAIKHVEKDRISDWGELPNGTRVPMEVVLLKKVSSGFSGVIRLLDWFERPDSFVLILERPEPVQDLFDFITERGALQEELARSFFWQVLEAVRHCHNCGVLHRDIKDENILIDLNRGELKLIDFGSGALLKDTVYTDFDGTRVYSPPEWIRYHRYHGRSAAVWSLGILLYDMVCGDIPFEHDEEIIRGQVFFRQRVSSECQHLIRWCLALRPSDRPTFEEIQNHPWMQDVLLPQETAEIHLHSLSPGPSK
Excerpt: Determination of the Pim kinase activity of a Formula I compound is possible by a number of direct and indirect detection methods.

SMILES: CCn1ncc(NC(=O)c2nc(-c3c(F)cccc3F)sc2N)c1N1CCC(N)C(OC)CC1 (single isomer, unassigned) [Example 407, 5-amino-N-[5-(4-amino-5-methoxy-azepan-1-yl)-1-ethyl-pyrazol-4-yl]-2-(2,6-difluorophenyl)thiazole-4-carboxamide]
- IC50 (BaF3 PIM1 cells): 795 nM
- EC50 [1]: 3500 nM
- IC50 (BaF3 parental cells): 9800 nM
- Ki (PIM1): 0.204 nM
